Literature values as cited in patent US6653500B2, “Method for the manufacture of Anagrelide” (Shire US Inc., priority 2000, dated 2003).
Where two headings read alike, the source gives them in different places.

Tests used:
[1] = monkeys, radiolabeled base
[2] = humans, radiolabeled base
[3] = solid

For O=C1CN2Cc3c(ccc(Cl)c3Cl)N=C2N1 [compound III, 6,7-dichloro-1,5-dihydroimidazo[2,1-b]quinazolin-2(3H)-one], the “absorption into blood plasma” value [1] is given as “complete absorption”, the “solubility in most organic solvents” value is given as “low” and the “absorption into blood plasma” value [2] is given as “complete absorption”. The aqueous solubility [3] was “low”.
